Laboratory results published in patent US9321809B2, “Macrocyclic compounds for suppressing replication of hepatitis C virus” (Ginkgo Pharma Co., Ltd., priority 2012, dated 2016).
Where two headings read alike, the source gives them in different places.

What was measured:
[1] = test system: HCV replicon-containing huh-7 cells (replicon 1b); assay: HCV Replicon Assay (luciferase readout); format: cell-based; conditions: Hepatitis C virus; HCV replicon 1b in huh-7 cells, 48 h incubation, 1% DMSO, luciferase signal; read-out: EC50 (EC 50 on replicon 1b)
Procedure: Compounds of formuala (I) are tested for the ability to inhibit viral replication of the Hepatitis C viruses by the following in vitro assays.
DMEM (Life Technologies #41965-039) was supplemented with 10% FBS, 2 mM L-glutamine (Life Technologies #25030-024), penicillin (100 units/ml)/streptomycin (100 micrograms/ml) (Life Technologies #15140-114), 1× non-essential amino acids (Life Technologies #11140-035).
Complete media was prepared by mixing FBS, DMEM media with Geneticin (G418). The compete media was preincubated at 37° C. in a CO2 incubator. Then, HCV replicon-containing huh-7 cells (V. Lohmann et. al. Science, 285, (1999)110-113) was taken out from 37° C. incubator. The residual medium was absorbed, and the cells were washed with PBS. After washing fluid was removed, 1 ml 0.25% trypsin/0.02% EDTA solution. The cells were washed by the above trypsin/EDTA solution to make sure that each cell was cleaned. After the trypsin/EDTA solution was absorbed, the mixture was incubated at 37° C. in a CO2 incubator for 3-5 minutes. Morphological changes were observed by inverted microscope, till the cells were detached from the wall of container completely.
3 ml of complete media was added to make the cells to suspend. The cells are counted with hematometer. Appropriate volumes of the complete media was added to adjust the cell density to 100,000/ml. Cells were plated with 100 μl of suspension at 10,000/well of 96 well plate. Plates were placed into 37° C. 5% CO2 incubator for 24 h.
Preparation of Drug Solution:
Drugs were diluted under aseptic conditions.
Stock solutions may be prepared before the assay, which means that the test compounds are dissolved in 100% DMSO to afford a final concentration of 2 mM. Before the 96 well culture was completed, the stock solution was diluted with culter media to 100 fold of the final concentration (100× solution).
96-well plates were taken out from 37° C. CO2 incubator and morphological changes were observed by inverted microscope. In a ventilator, 1 μl of 100× drug solution was added to wells of 96 well plate until the final concentration of DMSO in the mixture is 1%. The plates were incubated at 37° C. in a CO2 environment for 48 h. 30 μl of Stead-G1® Luciferase Assay System (bought from Promega) was added to each well of 96 well plates and each plate is shaken in a plate shaker for 5 minutes to ensure cells cleavaged completely. The fluorescence signal was quantitated in a Perkin-Elmer plate reader (Envision) and integral time was setted to be 2 second. The following data were achieved after recording and analyzing the data.

[2] = liver microsome metabolity assay (PK Assays); format: in vitro ADME, human; conditions: pH 7.4
Procedure: The following liver microsome metabolity assays validated the PK properties of compounds of Formula (I). 1. Buffer A: 1.0 L 0.1 M potassium phosphate monobasic buffer (including 1.0 mM EDTA); Buffer B: 1.0 L 0.1 M dipotassium phosphate buffer (including 1.0 mM EDTA); Buffer C: 0.1 M potassium phosphate buffer (including 1.0 mM EDTA), pH 7.4, add Buffer A to 700 ml of Buffer B until pH is 7.4. 2. Drug solution: 500 μM solution: a 10 μL (10 mM) DMSO was added to 190 μL ACN; 1.5 μM solution (dissolved in human microsome and the final concentration of microsome is 0.75 mg/mL): 1.5 μL (500 μM) of drug solution and 18.75 μL of human microsome (20 mg/mL) were added to 479.75 uL of Buffer C. 3. NADPH solution (6 mM, dissolved in Buffer C). 4. 30 µL of drug solution (1.5 μM) was added to a 96-well plate, setting locations for different time points; Preincubated for 10 minutes at 37° C. 5. […] of NADPH (6 mM) was added to the location for 45-min time point; and timing started. 6. At 30, 15 and 5 min, […] of NADPH (6 mM) was added to each corresponding locations, respectively. 7. After the reaction was completed mins), 135 μL acetonitrile was added to the locations for all different time points; 15 µL of NADPH (6 mM) was added to the location for 0 min time point. 8. Centrifugated at 3220 g for 10 min. 9. 50 μL of supernatant was collected and mixed with 50 μL, of ultrapure water. Samples were sent to LC/MS for analysis.

| Compound | EC50 [1] | half-life at 1 µM ([2]; human liver microsomes, human microsome 0.75 mg/mL, 1.5 μM drug solution, NADPH, 37° C., time points 0-45 min, LC/MS, read-out: t1/2) | half-life at 1 µM ([2]; human, microsomes) |
| --- | --- | --- | --- |
| CC[C@@H]1C[C@]1(NC(=O)[C@@H]1C[C@@H]2CN1C(=O)[C@H](C(C)(C)C)NC(=O)OCC(C)(C)CCCCc1cccc3c1CN(C3)C(=O)O2)C(=O)NS(=O)(=O)C1CC1 [MK7009, reference compound] | < 10 nM | 26 min | – |
| C=C[C@@H]1C[C@]1(NC(=O)[C@@H]1C[C@@H]2CN1C(=O)[C@H](C1CCCCC1)NC(=O)[C@@H](NC(=O)OC(C)(C)C)COC/C=C/c1cccc3c1CN(C3)C(=O)O2)C(=O)NS(=O)(=O)C1CC1 [Compound IIa-16, tert-butyl N-[(1R,12E,17S,20S,23S)-20-cyclohexyl-23-{[(1R,2S)-1-[(cyclopropanesulfonyl)carbamoyl]-2-ethenylcyclopropyl]carbamoyl}-3,18,21-trioxo-2,15-dioxa-4,19,22-triazatetracyclo[20.2.1.1^4,7.0^6,11]hexacosa-6,8,10,12-tetraen-17-yl]carbamate] | < 10 nM | – | 193 min |
| C=C[C@@H]1C[C@]1(NC(=O)[C@@H]1C[C@@H]2CN1C(=O)[C@H](C(C)(C)C)NC(=O)[C@@H](NC(=O)OC(C)(C)C)COC/C=C/c1cccc3c1CN(C3)C(=O)O2)C(=O)NS(=O)(=O)C1CC1 [Compound IIa-1, tert-butyl N-[(1R,12E,17S,20S,23S)-20-tert-butyl-23-{[(1R,2S)-1-[(cyclopropanesulfonyl)carbamoyl]-2-ethenylcyclopropyl]carbamoyl}-3,18,21-trioxo-2,15-dioxa-4,19,22-triazatetracyclo[20.2.1.1^4,7.0^6,11]hexacosa-6,8,10,12-tetraen-17-yl]carbamate] | < 10 nM | – | 198 min |
| C=C[C@@H]1C[C@]1(NC(=O)[C@@H]1C[C@@H]2CN1C(=O)[C@H](C1CCCCC1)NC(=O)[C@@H](NC(=O)OC(C)(C)C)COC/C=C/c1cc3c(nccc3cc1OC)O2)C(=O)NS(=O)(=O)C1CC1 [Compound IIb-3, tert-butyl N-[(3R,5S,8S,11S,15E)-8-cyclohexyl-5-{[(1R,2S)-1-[(cyclopropanesulfonyl)carbamoyl]-2-ethenylcyclopropyl]carbamoyl}-18-methoxy-7,10-dioxo-2,13-dioxa-6,9,23-triazatetracyclo[15.6.2.1^3,6.0^20,24]hexacosa-1(23),15,17(25),18,20(24),21-hexaen-11-yl]carbamate] | < 10 nM | – | 230 min |
